The values that follow come from patent US20050196806A1, “Prostate specific antigen oligoepitope peptide” (The Government of the USA, as represented by the Secretary, …, priority 1996, published 2005).

The target of assay [1] is T1, human HLA A2 molecules (Homo sapiens, UniProt P04439, D140Y/D185E/D98H/E176V/E277Q/G131W/G231S/I119V/I121R/I166T/I218V/L300P/L318F/N151K/N90K/P208A/P217A/Q86G/Q94H/R138H/R169H/T345S).
T1 construct: endogenous in cells; host or cells: T2 cells (174CEM.T2)
The assay can be described thus: T2 cell binding assay (PSA peptide binding assay, Example II). To be noted: peptides at 50 μg/ml, None = 127.25. From the text:
The amino acid sequence of human PSA was scanned using a predictive algorithm that combines a search for anchor residues with numerical assignments to all residues at all positions. The T2 cell binding assay was then used to determine which peptides bound human HLA A2 molecules. […] Table 7 gives the amino acid sequence of these peptides and compares them to corresponding sequences of HGK and PKA.

Assay [2] has as its target T2, HLA class-I A2001 molecule (Homo sapiens, UniProt P04439, D140Y/D185E/D98H/E176V/E277Q/G131W/G231S/I119V/I121R/I166T/I218V/L300P/L318F/N151K/N90K/P208A/P217A/Q86G/Q94H/R138H/R169H/T345S).
T2 construct: endogenous in cells; host or cells: T2 cells (174CEM.T2, transport deletion mutant)
The assay can be described thus: Peptide binding to HLA-A2: upregulation on T2 cells by flow cytometry (Example IV). The note with it: T2 cells incubated 24 h with peptide 50 μg/ml/10^6 cells; 100 cut off value for positivity; None = 16.88. A general note: Flow cytometry measures light scatter and fluorescence of single cells or particles in a stream.
Experimental: 1×10^6 cells in serum-free IMDM were incubated with peptides at the concentration of 50 μg/ml in 24-well culture plates at 37° C. in 5% CO2. Flow cytometry for peptide binding was performed using T2 cells and single color analysis. After cells were washed three times in DPBS as above, they were incubated for 1 hr with HLA-A2 specific MAb A2,69 (One lambda, Inc., Canoga Park, Calif.), using 10 μl of a 1× working dilution per 10^6 cells. MOPC-21 (Cappel/Organon Teknika Corp.) was used as isotype control. The cells were then washed three times and incubated with 1:100 dilution of fluorescein (FITC) labeled anti-mouse IgG (Kirkegaard & Perry, Gaithersburg, Md.). Analysis was carried out using the FACScan as described above. Cells were maintained on ice during all cell preparation and staining unless otherwise stated.

In assay [3] the test system is T2 cells. The assay can be described thus: Cytotoxic assay of PSA peptide specific T cells against T2 cells. It is filed as cell-based, human. The note with it: 24 hour assay, E:T ratio 25:1.
Assay [4] deals with LNCAP PSA expressing human prostate cancer cell line. The assay can be described thus: Cytotoxic assay of PSA peptide specific T cells against LNCAP (Example III). It is filed as cell-based. The note with it: T-Donor A T-cell line; 24 hour assay, E:T ratio 25:1; listed as 141-150. An excerpt:
(§1) Four of the T cell lines derived from three different individuals were then assays for their ability to lyse human cells (Table 9). […] No lysis was seen using the PSA negative human colon cancer cell line COLO-205. While 80% lysis was seen using the LNCAP PSA expressing human prostate cancer cell line. When employing the NK target K562, which measures non-specific lysis due to NK cell activity, only 23% lysis was obtained. Similar results were seen employing a different T cell line obtained from the same patient which was derived from pulsing with PSA peptide 154-163. Two additional T cell lines which were derived from peptide 154-163 were also analyzed. One was from a normal donor (T-1538) and one was from a prostate cancer patient (T-PC2; T Donor C).

In assay [5] the test system is NK target K562. The assay can be described thus: Cytotoxic assay of PSA peptide specific T cells against K562. Type of assay: cell-based, human. The note with it: T-Donor A T-cell line; 24 hour assay, E:T ratio 25:1.
Source text: as §1

Assay [6] has as its system CIR-A2 cells. The experiment in a line: CTL activity of PSA-OP specific T cell lines against peptide pulsed CIR-A2 cells. Type of assay: cell-based, human. To be noted: effector T/PSA-OP-1; 50 μg/ml peptide for 3 h; 18 h CTL assay; E:T ratio 25:1; No peptide 7.9(2.7). Here is the method:
Peripheral blood mononuclear cells (PBMCs) were obtained from heparinized blood of healthy HLA-A2 donors using a lymphocyte separation medium gradient (Organon Technika, Durham, N.C.). The mononuclear cell fraction was washed 3 times and PBMCs were resuspended in complete medium: AIM V (Life Technologies, Inc.) supplemented with 5% human AB serum (Valley Biomedical, Winchester, Va.), 2 mM glutamine, 100 U/ml of penicillin, and 100 μg/ml of streptomycin (GIBCO). Cells (2×10^5) in complete medium in a volume of 100 μl were put into each well of a 96-well flat-bottom assay plate (Corning, Costar Corp., Cambridge, Mass.). Peptides were added to cultures at a final concentration of […]. Cultures were incubated for 5 days at 37° C. in a humidified atmosphere containing 5% CO2. […]
Various target cells were labeled with 50 μCi of ^111In-oxyquinoline (Medi-Physics Inc., Arlington, Ill.) for 15 minutes at room temperature. […] Determinations were carried out in triplicate and standard deviations were calculated. […] Specific Lysis was calculated using the following formula: % of Specific Release=observed release(cpm)−spontaneous release(cpm) total releae(cpm)−spontaneous release(cpm)×100
Spontaneous release was determined from wells to which 100 μl of complete medium, instead of effector cells was added. Total releasable radioactivity was obtained after treatment of target cells with 2.5% Triton X-100.

Assay [7] relates to PBLs isolated from male HLA-A2001+ donors. The experiment in a line: Limiting dilution analysis of CTL precursor frequency. It is filed as cell-based, human. To be noted: for Number of precursors (precursor frequency): calculated by X^2 minimization; for % of negative microcolonies, 10,000: two cycles of stimulation with the peptide, targets CIRA2 pulsed 3 h, cold K562. The method, then: Limiting dilution assays were used for the determination of precursor frequencies to PSA-1, PSA-3 and PSA-OP. Various number of PBMCs were seeded in 96-well flat bottom plates (Coming Costar) with 1×10^4 autologous PBMC irradiated with 4,000 rads and incubated with 50 μg/ml of PSA peptide. Cells were cultured in complete medium as described previously. At least 48 cultures were set up for each dilution. Cultures were incubated for 5 days at 37° C. in a humidified atmosphere containing 5% CO2 and then provided with fresh medium containing human IL-2 for 11 days, with IL-2-containing medium being replenished every 72 hr as shown below for CTLs generation. After two cycles of stimulation specific cytotoxic activity was tested for each single well, against CIR-A2 target cells with or without incubation with peptide. Cytotoxic assays were similar to the method described above. The unlabelled K562 cells were added to the microwells containing responder cells. After 1 hr incubation at 37° C. target cells were added into each well and incubated for 6 hrs at 37° C. Precursor frequencies were calculated by X^2 minimization.

“And” between values parts separate entries of the source, which are not always exact repeats. Equal values may be shown once. Marks after values point to notes of the source that are not given here.

As to FLTPKKLQCV [PSA-1, ID No. 1], in assay [1] (listed as 141-150), the “MAb A2, 69: Mean channel fluorescent intensity” value is given as “positive”. Moreover, in assay [1] (listed as PSA 141-150), the “MAb A2, 69: Mean channel fluorescent intensity” value stood at 230.34. Besides, the “T2 binding: relative fluorescence (mean intensity) with anti-HLA-A2 mAb” value in assay [2] was found to be 127.73. Besides, in assay [3] (T-Donor A T-cell line derived with the peptide, 111In release), the “% specific release (lysis), T2” value is given as 10^a %. Further, in assay [3] (T-Donor A T-cell line), the “% specific release (lysis), T2 + peptide” value is listed as 40^b %. For the same sequence, the “% specific release (lysis), LNCAP” value in assay [4] was 80% and 80^b %. Moreover, in assay [5], the “% specific release (lysis), K562” value turned out to be 23%. The “% of Specific release (SD), CIR-A2 cells pulsed with the peptide” value in assay [6] was 8.4(4.0) %. Moreover, in assay [7] (T/PSA-OP 2 donor), the “% of negative microcolonies, 500” value amounted to 95.8%; the “% of negative microcolonies, 1,000” value worked out at 93.7%; the “% of negative microcolonies, 5,000” value is on record as 75.0%; the “Number of precursors (precursor frequency)” value is listed as 1/14695. For the same sequence, in assay [7] (T/PSA-OP 2 donor), the “% of negative microcolonies, 10,000” value is on record as 47.9%. For the same sequence, in assay [7] (T/PSA-OP 3 donor), the “% of negative microcolonies, 500” value was 100.0%; the “% of negative microcolonies, 1,000” value is reported as 100.0%; the “% of negative microcolonies, 5,000” value is 97.9%; the “Number of precursors (precursor frequency)” value is given as 1/181480. In addition, in assay [7] (T/PSA-OP 3 donor), the “% of negative microcolonies, 10,000” value is 93.7%.
